Data from patent publication US20220387440A1, “FORMULATIONS FOR USE IN THE PREVENTION AND/OR TREATMENT OF PERIPHERAL NEUROPATHY AND ITS ASSOCIATED DISEASES” (priority 2019, published 2022).
Several values for one entry are separate records, joined by “and”; a condition that tells them apart may be missing. Identical values can stand only once. Like-named read-outs stand apart in the source and are kept apart here.

Assays:
[1] = tested on: rat dorsal root ganglion neurons (DRG); conditions: for Score of neuroprotection, Extremity count / Score of neuroprotection, Total length: glucose-treated DRGs
Procedure: In vitro injury was induced in DRGs culture by glucose treatment (150 mM) for 48 hours. […] By using HCS technology, cell parameters associated with neurite outgrowth—an indication of pre-lethal cytotoxic effects—were measured at single cell level, which allows high-throughput screening.
(§1) Primary cultures of dorsal rat ganglion neurons were prepared from the dorsal ganglions of neonatal Sprague-Dawley rats at day 8. […] Cells were maintained in neurobasal medium supplemented with B-27 component for 8 days at 37° C. in a humidified 5% CO2 atmosphere.
Beta-Ill tubulin staining: Beta-Ill tubulin staining was determined by Immunohistochemistry (IHQ). Cells were washed with PBS (Sigma Aldrich # Cat.D8537) and fixed with methanol for 10 minutes. After the fixation step the samples were washed three times with PBS and permeabilized with PBS+0.3% triton for 10 minutes. The samples were then blocked with PBS+Bovine Serum Albumine (BSA) for 30 minutes and finally anti-beta tubulin Ill antibody (Abcam # Cat.ab7751) were added at 1/1000 in PBS+0.5% BSA for 60 minutes at room temperature. […] The samples were then washed three times and measured under automated fluorescent microscope. To investigate the role of neurite extension, two geometric patterns were mainly employed in this study: total neurite length (total length of the path from a neuron body), and number of extremities (number of terminating neurite segments per neuron).
In order to acquire enough cells for the analysis, nine fields per well were imaged. The 20× objective was used to collect images for the distinct fluorescence channels. Dyes were excited and their fluorescence was monitored at the excitation and emission wavelengths with appropriate filter settings. In the setting up of the procedure, exposure times were adjusted in order to avoid overlapping emission between different probes. The collected images were analyzed using a module that allows the simultaneous quantification of subcellular structures, which are stained by different molecular probes to measure the fluorescence intensity associated with predefined nuclear and cytoplasmic compartments.

[2] = tested on: rat dorsal root ganglion neurons (DRG); experiment: WST-8 assay of viable cells, glucose toxicity; conditions: for Score of neuroprotection, WST8: glucose-treated DRGs
Procedure: as §1
2. WST-8 assay: For detection of viable cells, 10 μl of CCK-8 reagent (WST-8) were added to each well and the plate was incubated at 37° C. After 1 hour, absorbance was measured at 450 nm using the Synergy II microplate reader.

[3] = tested on: rat dorsal root ganglion neurons (DRG); experiment: Cell number by hoechst 33342 nucleic acid stain (HCS), glucose toxicity; conditions: for Score of neuroprotection, HOECHST: glucose-treated DRGs
Source text: This dye allows a sensitive cell number determination by fluorescence microscopy.

glucose-treated DRGs = experiment: Degree of neuroprotection, sum of scores of all HCS parameters; conditions: for Total score of neuroprotection (sum of individual scores): glucose-treated DRGs; for Neuroprotection degree: prior to assault with 150 mM glucose
Source text: For all the studied parameters, a variation of at least 20% in fluorescence intensity or in the corresponding morphological parameter in relation to untreated cultures was considered. […] From this calculation, a neuroprotective scale was established: high (>6), moderate (4-5), low (1-3), and no neuroprotection (0).
In order to compare the degree of neuroprotection of the tested compound at different concentrations, different scores were created according to the level of the alteration (the group formation criterion is described in material and methods section) and then a value was assigned to each parameter. The sum of all the values for each parameter and concentration tested was calculated, and four distinct groups were created according to their level of neuroprotection.

peripheral nerves = conditions: injected into the spinal cord compartment of cerebral spinal fluid; cited from earlier work
[4] = diluted with sodium chloride 0.9%; cited from earlier work
eye = conditions: higher concentrations, accidental use instead of Trypan Blue during cataract surgery; cited from earlier work
[5] = Sprague-Dawley, rat, 48 h, 150 mM
[6] = MB 0.0005 uM (with glu 150 mM, 48 h)
[7] = MB 0.0005 uM (with glu 150 mM, 48 h), listed as MB
[8] = MB 0.005 uM (with glu 150 mM, 48 h)
[9] = MB 0.005 uM (with glu 150 mM, 48 h), listed as MB
[10] = MB 0.05 uM (with glu 150 mM, 48 h)
[11] = MB 0.05 uM (with glu 150 mM, 48 h), listed as MB
[12] = MB 0.5 uM (with glu 150 mM, 48 h)
[13] = MB 0.5 uM (with glu 150 mM, 48 h), listed as MB
[14] = MB 5 uM (with glu 150 mM, 48 h)
[15] = MB 5 uM (with glu 150 mM, 48 h), listed as MB
[16] = MB 50 uM (with glu 150 mM, 48 h)
[17] = MB 50 uM (with glu 150 mM, 48 h), listed as MB

In the case of `O=C[C@H](O)[C@@H](O)[C@H](O)[C@H](O)CO` [Glucose, glucose], the “Extremity count/neuron (single replicates)” value ([1]; Glucose (Alone) 150 mM, 48 h) is reported as 0.82 and 0.9862 and 0.7818, the “Extremity count/neuron, Mean % of control” value ([1]; Glucose (Alone) 150 mM, 48 h) is reported as 69.57 % of control and the “Extremity count/neuron, mean” value ([1]; Glucose (Alone) 150 mM, 48 h) is reported as 0.8627. The “Total length per neuron (single replicates)” value ([1]; Glucose (Alone) 150 mM, 48 h) was 42.95 and 52.97 and 37.56, the “Total length per neuron, Mean % of control” value ([1]; Glucose (Alone) 150 mM, 48 h) was 62.89 % of control and the “Total length per neuron, mean” value ([1]; Glucose (Alone) 150 mM, 48 h) was 44.49. The “decrease in neurite extremity count compared to untreated cells” value [1, 5] was 31%, the “decrease in neurite total length compared to untreated cells” value [1, 5] was 38% and the “viability reduction in DRGs measured by WST8” value ([2]; glucose 150 mM, 48 h) was 22%. For the same molecule, the “Cell viability by Hoechst (single replicates)” value ([3]; Glucose (Alone) 150 mM, 48 h) was 125 and 104 and 81, the “Cell viability by Hoechst, Mean % of control” value ([3]; Glucose (Alone) 150 mM, 48 h) was 46.76 % of control and the “Cell viability by Hoechst, mean” value ([3]; Glucose (Alone) 150 mM, 48 h) was 103.3. The mortality in neurons [3, 5] was 54%.

In the case of `CN(C)c1ccc2nc3ccc(N(C)C)cc3[s+]c2c1` [methylene blue, 3,7-bis(dimethylamino) phenothiazin-5-ium chloride], the “Score of neuroprotection, Extremity count” value (“Score … Extremity count” for short) ([1]; 0.0005 μM) is reported as 0 (no neuroprotection or variation lower than 20%), the “Score of neuroprotection, Total length” value ([1]; 0.0005 μM) is reported as 0 (no neuroprotection or variation lower than 20%) and the “Score … Extremity count” value ([1]; 0.005 μM) is reported as 0 (no neuroprotection or variation lower than 20%). For the same molecule, the “Score of neuroprotection, Total length” value ([1]; 0.005 μM) was 0 (no neuroprotection or variation lower than 20%), the “re-establishment of neurite outgrowth affected by glucose” value ([1]; 0.05 μM with 150 mM glucose) was “could re-establish the affected neurite outgrowth” and the “Score … Extremity count” value ([1]; 0.05 μM) was 1 (variation 20-40%). The “Score of neuroprotection, Total length” value ([1]; 0.05 μM) was 1 (variation 20-40%), the “Score … Extremity count” value ([1]; 0.5 μM) was 0 (no neuroprotection or variation lower than 20%) and the “Score of neuroprotection, Total length” value ([1]; 0.5 μM) was 0 (no neuroprotection or variation lower than 20%). The “Score … Extremity count” value ([1]; 5 μM) was −1 (variation 20-40%), the “Score of neuroprotection, Total length” value ([1]; 5 μM) was 0 (no neuroprotection or variation lower than 20%) and the “Score … Extremity count” value ([1]; 50 μM) was −3 (variation 40-60%). For the same molecule, the “Score of neuroprotection, Total length” value ([1]; 50 μM) was −1 (variation 20-40%), the “Extremity count/neuron, Mean % of control” value [1, 6] was 77.9 % of control and the “Extremity count/neuron, mean” value [1, 6] was 0.966. The “Total length per neuron, Mean % of control” value [1, 6] was 70.88 % of control, the “Total length per neuron, mean” value [1, 6] was 50.15 and the “Extremity count/neuron (single replicates)” value [1, 7] was 1.058 and 0.8613 and 0.9784. The “Total length per neuron (single replicates)” value [1, 7] was 50.96 and 40.13 and 59.36, the “Extremity count/neuron, Mean % of control” value [1, 8] was 82.24 % of control and the “Extremity count/neuron, mean” value [1, 8] was 1.02. For the same molecule, the “Total length per neuron, Mean % of control” value [1, 8] was 74.22 % of control, the “Total length per neuron, mean” value [1, 8] was 52.51 and the “Extremity count/neuron (single replicates)” value [1, 9] was 0.8645 and 1.19 and 1.005. For the same molecule, the “Total length per neuron (single replicates)” value [1, 9] was 45.83 and 61.19 and 50.5, the “Extremity count/neuron, Mean % of control” value [1, 10] was 95.29 % of control and the “Extremity count/neuron, mean” value [1, 10] was 1.182. For the same molecule, the “Total length per neuron, Mean % of control” value [1, 10] was 86.27 % of control, the “Total length per neuron, mean” value [1, 10] was 61.03 and the “Extremity count/neuron (single replicates)” value [1, 11] was 1.345 and 1.059 and 1.141. The “Total length per neuron (single replicates)” value [1, 11] was 62.91 and 50.39 and 69.8, the “Extremity count/neuron, Mean % of control” value [1, 12] was 61.57 % of control and the “Extremity count/neuron, mean” value [1, 12] was 0.7634. For the same molecule, the “Total length per neuron, Mean % of control” value [1, 12] was 56.15 % of control, the “Total length per neuron, mean” value [1, 12] was 39.72 and the “Extremity count/neuron (single replicates)” value [1, 13] was 0.6567 and 0.8552 and 0.7784. For the same molecule, the “Total length per neuron (single replicates)” value [1, 13] was 37.34 and 47.77 and 34.07, the “Extremity count/neuron, Mean % of control” value [1, 14] was 52.97 % of control and the “Extremity count/neuron, mean” value [1, 14] was 0.6568. The “Total length per neuron, Mean % of control” value [1, 14] was 60.36 % of control, the “Total length per neuron, mean” value [1, 14] was 42.7 and the “Extremity count/neuron (single replicates)” value [1, 15] was 0.8559 and 0.5369 and 0.5777. The “Total length per neuron (single replicates)” value [1, 15] was 53.61 and 42.2 and 32.3, the “Extremity count/neuron, Mean % of control” value [1, 16] was 20.98 % of control and the “Extremity count/neuron, mean” value [1, 16] was 0.2601. For the same molecule, the “Total length per neuron, Mean % of control” value [1, 16] was 22.74 % of control, the “Total length per neuron, mean” value [1, 16] was 16.09 and the “Extremity count/neuron (single replicates)” value [1, 17] was 0.2833 and 0.2345 and 0.2625. The “Total length per neuron (single replicates)” value [1, 17] was 18.18 and 12.64 and 17.45, the “Total score of neuroprotection (sum of individual scores)” value (shortened to “Total score of neuroprotection”) (glucose-treated DRGs; 0.0005 μM) was 3 and the Neuroprotection degree (glucose-treated DRGs; 0.0005 μM) was “low (low (1-3))”. The “Total score of neuroprotection” value (glucose-treated DRGs; 0.005 μM) was 3, the Neuroprotection degree (glucose-treated DRGs; 0.005 μM) was “low (low (1-3))” and the “Total score of neuroprotection” value (glucose-treated DRGs; 0.05 μM) was 5. For the same molecule, the Neuroprotection degree (glucose-treated DRGs; 0.05 μM) was “moderate (moderate (4-5))”, the “Total score of neuroprotection” value (glucose-treated DRGs; 0.5 μM) was 3 and the Neuroprotection degree (glucose-treated DRGs; 0.5 μM) was “low (low (1-3))”. The “Total score of neuroprotection” value (glucose-treated DRGs; 5 μM) was 0, the Neuroprotection degree (glucose-treated DRGs; 5 μM) was “no (no neuroprotection (0))” and the “Total score of neuroprotection” value (glucose-treated DRGs; 50 μM) was −6. The “neuroprotection against glucose-induced DRGs toxicity, all parameters” value (glucose-treated DRGs; concentrations from 0.0005 μM to 0.5 μM) was “some neuroprotection”, the “nerve toxicity after injection into cerebral spinal fluid” value (peripheral nerves) was “massive peripheral nerves damage and resultant total paraplegia” and the “Score of neuroprotection, WST8” value ([2]; 0.0005 μM) was 0 (no neuroprotection or variation lower than 20%). For the same molecule, the “Score of neuroprotection, WST8” value ([2]; 0.005 μM) was 0 (no neuroprotection or variation lower than 20%), the “Score of neuroprotection, WST8” value ([2]; 0.05 μM) was 0 (no neuroprotection or variation lower than 20%) and the “Score of neuroprotection, WST8” value ([2]; 0.5 μM) was 0 (no neuroprotection or variation lower than 20%). The “Score of neuroprotection, WST8” value ([2]; 5 μM) was 0 (no neuroprotection or variation lower than 20%), the “viability (WST8) in addition to glucose” value ([2]; 50 μM with 150 mM glucose) was “decrease in viability” and the “Score of neuroprotection, WST8” value ([2]; 50 μM) was −1 (variation 20-40%). The “prevention of glucose induced viability decrease (WST8)” value ([2]; 0.0005-50 μM with 150 mM glucose) was “could not prevent glucose induced viability decrease”, the compatibility with saline [4] was “precipitation has been reported” and the ocular toxicity (eye) was “irreversible blindness, corneal edema”. For the same molecule, the “Score of neuroprotection, HOECHST” value ([3]; 0.0005 μM) was 3 (variation 60-100%), the “Score of neuroprotection, HOECHST” value ([3]; 0.005 μM) was 3 (variation 60-100%) and the “Score of neuroprotection, HOECHST” value ([3]; 0.05 μM) was 3 (variation 60-100%). For the same molecule, the “Score of neuroprotection, HOECHST” value ([3]; 0.5 μM) was 3 (variation 60-100%), the “Score of neuroprotection, HOECHST” value ([3]; 5 μM) was 1 (variation 20-40%) and the “Score of neuroprotection, HOECHST” value ([3]; 50 μM) was −1 (variation 20-40%). The “Cell viability by Hoechst, Mean % of control” value [3, 6] was 100.3 % of control, the “Cell viability by Hoechst, mean” value [3, 6] was 221.7 and the “Cell viability by Hoechst (single replicates)” value [3, 7] was 187 and 236 and 242. For the same molecule, the “Cell viability by Hoechst, Mean % of control” value [3, 8] was 115.1 % of control, the “Cell viability by Hoechst, mean” value [3, 8] was 254.3 and the “Cell viability by Hoechst (single replicates)” value [3, 9] was 255 and 290 and 218. The “Cell viability by Hoechst, Mean % of control” value [3, 10] was 115.2 % of control, the “Cell viability by Hoechst, mean” value [3, 10] was 254.7 and the “Cell viability by Hoechst (single replicates)” value [3, 11] was 270 and 253 and 241. The “Cell viability by Hoechst, Mean % of control” value [3, 12] was 109.2 % of control, the “Cell viability by Hoechst, mean” value [3, 12] was 241.3 and the “Cell viability by Hoechst (single replicates)” value [3, 13] was 234 and 217 and 273. For the same molecule, the “Cell viability by Hoechst, Mean % of control” value [3, 14] was 64.56 % of control, the “Cell viability by Hoechst, mean” value [3, 14] was 142.7 and the “Cell viability by Hoechst (single replicates)” value [3, 15] was 168 and 103 and 157. The “Cell viability by Hoechst, Mean % of control” value [3, 16] was 30.92 % of control, the “Cell viability by Hoechst, mean” value [3, 16] was 68.33 and the “Cell viability by Hoechst (single replicates)” value [3, 17] was 74 and 69 and 62. For the same molecule, the “prevention of glucose-induced mortality” value ([3]; all concentrations (0.0005-5 μM), dose dependent, except 50 μM, co-incubation with 150 mM glucose) was “could prevent glucose-induced mortality”.
